This note sets out measurements from article doi:10.1101/757047v1 (biorxiv, 2019).

Test [1] has as its target T1, STK10 (Homo sapiens, UniProt O94804). Kind of test: biochemical.
The target in test [2] is T2, full length GAK protein N-terminally fused with NanoLuc luciferase (Homo sapiens, UniProt O14976).
T2 sequence (O14976 2-1311): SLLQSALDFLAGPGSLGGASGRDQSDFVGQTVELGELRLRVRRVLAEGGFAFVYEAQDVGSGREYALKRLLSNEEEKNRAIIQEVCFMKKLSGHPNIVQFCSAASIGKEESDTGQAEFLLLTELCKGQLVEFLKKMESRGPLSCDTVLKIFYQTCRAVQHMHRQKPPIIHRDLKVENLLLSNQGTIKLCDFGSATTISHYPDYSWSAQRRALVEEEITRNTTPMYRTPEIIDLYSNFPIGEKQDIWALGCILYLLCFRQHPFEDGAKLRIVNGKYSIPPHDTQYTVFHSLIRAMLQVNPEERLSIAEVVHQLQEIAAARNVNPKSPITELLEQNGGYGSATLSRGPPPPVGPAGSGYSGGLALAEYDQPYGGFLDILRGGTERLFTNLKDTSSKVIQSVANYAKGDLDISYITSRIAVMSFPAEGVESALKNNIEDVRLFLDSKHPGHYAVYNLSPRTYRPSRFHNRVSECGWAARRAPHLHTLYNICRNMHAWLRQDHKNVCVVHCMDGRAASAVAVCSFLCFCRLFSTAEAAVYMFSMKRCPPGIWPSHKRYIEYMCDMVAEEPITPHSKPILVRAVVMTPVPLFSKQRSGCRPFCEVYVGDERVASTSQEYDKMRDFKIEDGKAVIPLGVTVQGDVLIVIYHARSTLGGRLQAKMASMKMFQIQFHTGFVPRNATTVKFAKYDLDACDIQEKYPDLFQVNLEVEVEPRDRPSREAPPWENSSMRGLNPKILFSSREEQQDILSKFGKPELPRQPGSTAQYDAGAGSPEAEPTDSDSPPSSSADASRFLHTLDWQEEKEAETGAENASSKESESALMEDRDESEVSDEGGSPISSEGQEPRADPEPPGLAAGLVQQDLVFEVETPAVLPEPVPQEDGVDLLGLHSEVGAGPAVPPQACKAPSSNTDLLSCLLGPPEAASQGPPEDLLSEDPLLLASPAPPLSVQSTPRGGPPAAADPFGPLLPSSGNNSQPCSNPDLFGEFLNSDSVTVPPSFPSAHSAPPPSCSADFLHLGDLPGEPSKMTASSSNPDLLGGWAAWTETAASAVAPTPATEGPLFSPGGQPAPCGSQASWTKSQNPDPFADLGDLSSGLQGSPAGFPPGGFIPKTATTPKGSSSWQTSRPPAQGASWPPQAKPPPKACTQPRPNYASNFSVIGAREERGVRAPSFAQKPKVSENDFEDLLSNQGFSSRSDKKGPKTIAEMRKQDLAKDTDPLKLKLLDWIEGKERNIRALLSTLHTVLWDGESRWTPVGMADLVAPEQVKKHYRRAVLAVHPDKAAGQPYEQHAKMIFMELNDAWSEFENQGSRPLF
Kind of test: cell-based. Details: species or system HEK293T.

Test [3] addresses T3, GAK (Homo sapiens, UniProt O14976).
T3 sequence (O14976 12-347 limits assumed): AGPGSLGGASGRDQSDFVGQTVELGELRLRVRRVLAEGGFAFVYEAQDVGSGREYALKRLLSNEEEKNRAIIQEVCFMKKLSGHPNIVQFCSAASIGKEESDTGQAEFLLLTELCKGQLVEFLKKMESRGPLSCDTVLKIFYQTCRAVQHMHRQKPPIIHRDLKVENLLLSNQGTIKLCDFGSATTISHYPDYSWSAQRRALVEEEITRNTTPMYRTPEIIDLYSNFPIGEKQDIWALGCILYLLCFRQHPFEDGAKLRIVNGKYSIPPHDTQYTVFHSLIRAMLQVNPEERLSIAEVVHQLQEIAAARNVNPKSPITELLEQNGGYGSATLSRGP
The test can be described thus: biochemical.

The target of test [4] is T4, SLK (Homo sapiens, UniProt Q9H2G2). The test can be described thus: biochemical.
T4 sequence (Q9H2G2 34-292): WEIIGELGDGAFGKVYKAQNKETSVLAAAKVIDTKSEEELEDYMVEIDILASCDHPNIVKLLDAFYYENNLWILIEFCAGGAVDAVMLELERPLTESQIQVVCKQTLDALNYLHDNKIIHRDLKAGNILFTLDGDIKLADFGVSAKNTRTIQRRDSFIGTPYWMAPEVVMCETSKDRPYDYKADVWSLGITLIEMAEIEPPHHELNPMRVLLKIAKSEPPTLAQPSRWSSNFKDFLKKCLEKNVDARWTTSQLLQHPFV
Test [5] deals with T2, full length GAK protein N-terminally fused with NanoLuc luciferase. Kind of test: cell-based. Details: species or system HEK293T. This is another data set of the same source.
For test [6], the target named is T3, GAK. The test can be described thus: biochemical. The source holds these as a separate data set.
For test [7], the target named is T4, SLK. The test can be described thus: biochemical. The source holds these as a separate data set.
In test [8] the target is T1, STK10. Kind of test: biochemical. The source holds these as a separate data set.
Test [9] addresses T4, SLK. The test can be described thus: biochemical. The source holds these as a separate data set.
For test [10], the target named is T2, full length GAK protein N-terminally fused with NanoLuc luciferase. The test can be described thus: cell-based. On the set-up: species or system HEK293T. The source holds these as a separate data set.
Test [11] concerns the target T3, GAK. Kind of test: biochemical. The source holds these as a separate data set.
The target of test [12] is T1, STK10. The test can be described thus: biochemical. This is another data set of the same source.
Test [13] deals with T4, SLK. The test can be described thus: biochemical. The source holds these as a separate data set.

pIC50, pKi: −log10 of the molar value. Like-named read-outs stand apart in the source and are kept apart here.

T1 sequence (O94804 36-294 limits assumed): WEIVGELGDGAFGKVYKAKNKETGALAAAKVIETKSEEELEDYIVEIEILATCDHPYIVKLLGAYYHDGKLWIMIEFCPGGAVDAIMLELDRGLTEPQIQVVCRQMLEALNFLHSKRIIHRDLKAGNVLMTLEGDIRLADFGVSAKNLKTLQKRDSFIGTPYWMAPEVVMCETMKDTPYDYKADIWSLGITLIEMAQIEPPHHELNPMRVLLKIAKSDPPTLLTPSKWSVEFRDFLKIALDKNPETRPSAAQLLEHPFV

Consider `Fc1ccc(Nc2ncnc3ccc(Br)cc23)cc1` [compound 109, 109], for which the pKi – broadly, the Ki on a negative log10 scale, so that one unit is a factor of ten – was under 4.26 at STK10 [1], 6.92 on GAK [3] and under 4.26 at SLK [4]. The pIC50 (in general, −log10 of the IC50, conventionally taken in molar units) in test [2] is under 5.30.

Turning to `Brc1cccc(Nc2ccnc3ccc(Br)cc23)c1` [compound 112, 112], the negative logarithm of the Ki (pKi) at STK10 [1] was under 4.26; at GAK [3], 7.14; at SLK [4] it was under 4.26. The pIC50 in [2] is under 5.30.

On to `Fc1cc(Nc2ccnc3ccc(Br)cc23)cc(F)c1F` [compound 103, 103], for which the pKi on STK10 [1] is under 4.26; at GAK [3], 7.64; on SLK [4] it was under 4.26. The pIC50 in test [2] was 5.36.

Consider `Fc1ccc(Nc2ccnc3ccc(Br)cc23)cc1F` [compound 104, 104], for which the values for the pKi on STK10 [1], at GAK [3] and on SLK [4] were under 4.26, 7.96 and under 4.26, respectively. This compound had a pIC50 in test [2] of under 5.30.

Regarding `C#Cc1cccc(Nc2c(C#N)cnc3cc(Cl)ccc23)c1` [compound 84, 84], the pIC50 in [5] was under 5.30. In addition, the negative-log Ki (pKi) at GAK [6] was 7.55; at SLK [7] it was 6.74; at STK10 [8], 6.68.

The compound `C#Cc1cccc(Nc2c(C#N)cnc3ccc(S(C)(=O)=O)cc23)c1` [compound 80, 80] gave a pIC50 in test [5] of under 5.30. The values for the pKi at GAK [6], at SLK [7] and at STK10 [8] were 6.74, under 4.26 and 4.38, respectively.

Regarding `C#Cc1cccc(Nc2ncnc3cc(C#N)ccc23)c1` [compound 67, 67], the values for the pKi on SLK [9] and on GAK [11] were 6.59 and 7.00, respectively. Moreover, in test [10], the pIC50 is under 5.30.

Regarding `Fc1ccccc1Nc1ccnc2ccc(Br)cc12` [compound 111, 111], the figures for the pKi on STK10 [1], at GAK [3] and at SLK [4] were 4.52, 7.31 and under 4.26, respectively. The compound further showed a negative-log IC50 (pIC50) in [2] of 5.59.

In turn, `C#Cc1cccc(Nc2c(C#N)cnc3ccc(Cl)cc23)c1` [compound 77, 77] showed a pIC50 in [5] of 5.49. In addition, the pKi at GAK [6] was 7.80; on SLK [7], 6.15; at STK10 [8], 6.14.

With `C#Cc1cccc(Nc2c(C#N)cnc3cc(Br)ccc23)c1` [compound 85, 85], in test [5], the pIC50 was under 5.30. Further, the pKi is 7.57 at GAK [6], 6.80 at SLK [7] and 6.89 at STK10 [8].

Turning to `Brc1cccc(Nc2ncnc3ccc(Br)cc23)c1` [compound 113, 113], the pKi was 5.22 at STK10 [1], 7.08 on GAK [3] and 5.03 at SLK [4]. The pIC50 in test [2] is under 5.30.

Compound `C#Cc1cccc(Nc2c(C#N)cnc3ccc(F)cc23)c1` [compound 76, 76] showed a pIC50 in [5] of 5.42. For the same compound, the pKi at GAK [6] is 7.59; on SLK [7], 6.27; on STK10 [8] it was 6.24.

Regarding `C#Cc1cccc(Nc2c(C#N)cnc3ccc(Br)cc23)c1` [compound 78, 78], the pIC50 in test [5] was 5.36. For the same compound, the pKi on GAK [6] is 7.77; at SLK [7], 5.92; at STK10 [8] it was 5.96.

In the case of `C#Cc1cccc(Nc2c(C#N)cnc3cc(OC)c(OC)cc23)c1` [compound 82], the pKi at STK10 [12] was 7.57; at SLK [13], 7.74.

Compound `C#Cc1cccc(Nc2c(C#N)cnc3ccc(I)cc23)c1` [compound 79, 79] gave a pIC50 in test [5] of under 5.30. In addition, the pKi at GAK [6] was 7.70; on SLK [7], 5.96; at STK10 [8] it was 6.00.

With `Fc1cccc(Nc2ccnc3ccc(Br)cc23)c1` [compound 110, 110], the pKi was under 4.26 at STK10 [1], 7.72 at GAK [3] and under 4.26 on SLK [4]. This compound gave a pIC50 in [2] of 5.72.

Take `Fc1cc(F)cc(Nc2ccnc3ccc(Br)cc23)c1` [compound 105, 105]: the values for the pKi on STK10 [1], on GAK [3] and on SLK [4] were under 4.26, 7.92 and under 4.26, respectively. Also, in test [2], the pIC50 was under 5.30.

As for `C#Cc1cccc(Nc2c(C#N)cnc3ccccc23)c1` [compound 75, 75], in test [5], the negative logarithm of the IC50 (pIC50) was 5.82. For the same compound, the pKi is 7.74 on GAK [6], 6.46 at SLK [7] and 6.47 on STK10 [8].
